Test results: US10017516B2, “BMP inhibitors and methods of use thereof” (The Brigham and Women's Hospital, Inc., priority 2013, dated 2018)
Values belong to the molecule of their own block, whether it stands above or below them.

Key:
[1] = In vitro metabolism in mouse and human liver microsomes and cytosols; format: in vitro ADME; settings: for major metabolism in the presence of liver cytosol (aldehyde oxidase-mediated oxidation): 10 μM, 60 min, mouse and human; for glucuronide conjugates: with UDPGA
human ALK2 = human ALK2 (Homo sapiens (Human), UniProt Q04771); assay: LANCE Ultra ULight enzymatic assay, ALK2; format: biochemical; settings: 10 μM ATP
[2] = In vitro metabolism in human liver microsomes and cytosols; format: in vitro ADME

Chain of human ALK2 (Q04771 21-509): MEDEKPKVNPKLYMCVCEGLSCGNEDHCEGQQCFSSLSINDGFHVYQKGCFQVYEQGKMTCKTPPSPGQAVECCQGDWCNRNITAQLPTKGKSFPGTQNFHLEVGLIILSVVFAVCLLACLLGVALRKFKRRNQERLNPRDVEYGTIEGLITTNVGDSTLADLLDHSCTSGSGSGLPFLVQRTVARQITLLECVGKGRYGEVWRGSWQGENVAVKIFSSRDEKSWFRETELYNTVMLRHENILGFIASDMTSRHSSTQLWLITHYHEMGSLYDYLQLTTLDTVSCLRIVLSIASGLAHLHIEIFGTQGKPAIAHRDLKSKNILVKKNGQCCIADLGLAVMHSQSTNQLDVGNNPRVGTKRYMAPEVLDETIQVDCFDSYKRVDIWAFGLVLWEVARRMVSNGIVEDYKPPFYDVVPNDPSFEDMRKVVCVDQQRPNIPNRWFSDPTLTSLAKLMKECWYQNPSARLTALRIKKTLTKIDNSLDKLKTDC

GSH trapping of soft electrophiles ([1]; GSH 2 mM): not observed | cyanide adducts (reactive intermediate trapping with KCN) ([1]; KCN 0.1 mM): not observed | glucuronide conjugates [1]: not observed
Structure (SMILES): c1ccc2c(-c3cnn4cc(-c5ccc(C6CCNCC6)cc5)cnc34)ccnc2c1 [Compound 48]
major metabolism in the presence of liver cytosol (aldehyde oxidase-mediated oxidation) [1]: metabolized mainly through the oxidation of the quinoline ring

IC50 (human ALK2): 85 nM
Structure (SMILES): Cc1ccc2c(-c3cnn4cc(-c5ccc(OCCN6CCCCC6)cn5)cnc34)cccc2n1 [Compound 48′, 2-methyl-5-(6-(5-(2-(piperidin-1-yl)ethoxy)pyridin-2-yl)pyrazolo[1,5-a]pyrimidin-3-yl)quinoline]

glucuronide conjugates [1]: not observed
Structure (SMILES): C[C@@H]1CNC[C@H](C)N1c1ccc(-c2cnc3c(-c4ccnc5ccccc45)cnn3c2)cc1 [compound 2, 4-(6-(4-((2R,6S)-2,6-dimethylpiperazin-1-yl)phenyl)pyrazolo[1,5-a]pyrimidin-3-yl)quinoline]
major metabolism in the presence of liver cytosol (aldehyde oxidase-mediated oxidation) [1]: oxidation of the alpha-carbon of quinoline nitrogen, leading to M450c

oxidative metabolites in incubation without NADPH (AO mediated metabolism) ([2]; 10 μM, 1 hr, HLM + human cytosol): Oxidative metabolites were not observed | cyanide adduct (KCN trapping) ([2]; KCN 1 mM): A major cyanide adduct was observed | glucuronide conjugates ([2]; UDPGA 4 mM): Glucuronide conjugates were not observed | aniline metabolites ([2]; human liver microsomal preparations): An aniline derivative was observed
Structure (SMILES): Cc1cc(-c2cnn3cc(-c4ccc(N5CCNCC5)nc4)cnc23)c2ccccc2n1 [compound 12, 2-methyl-4-(6-(6-(piperazin-1-yl)pyridin-3-yl)pyrazolo[1,5-a]pyrimidin-3-yl)quinoline]
